# Laboratory results reported in the supplement of paper PMC8671470.
# Test system: myeloid leukemia patient primary cells Pat.5
# Assay: cell viability (% survival relative to DMSO control); higher = less cytotoxic
# Settings: 10000 nM; 72 h
# In short: (§1)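 Thawed, Ficoll-purified mononuclear cells from AML or CML patients in RPMI 1640 with 10% FBS were seeded at 10,000 cells/well on 384-well plates pre-printed with 70 compounds at five tenfold concentrations, 1–10,000 nM, in duplicate, for 72 h. Viability was read by CellTiter-Glo and normalised to DMSO and 10 μM proteasome-inhibitor wells. Where given, area under the curve came from four-parameter log-logistic fits (drc, PharmacoGx R packages).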
row,Structure (SMILES),cell viability [%]
1,O=C(O)Cn1nnc(-c2cc(N3CCC(Oc4cc(F)ccc4Br)CC3)no2)n1 [MK-8245],70
2,C=C(C=NNC(=N)N)NNC(=N)N [Mitoguazone],78.9
3,COc1cc(/C=C/C(=O)N2CCC=CC2=O)cc(OC)c1OC [Piperlongumine],10.1
4,CC[C@@]1(O)C(=O)OCc2c1cc1n(c2=O)Cc2cc3c(CN(C)C)c(O)ccc3nc2-1 [Topotecan],0.265

# Test system: myeloid leukemia patient primary cells Pat.14
# Assay: as above
# Settings: 1 nM; 72 h
# In short: as §1
row,Structure (SMILES),cell viability [%]
1,O=C1O/C(=C/Br)CCC1c1cccc2ccccc12 (centres undefined) [Bromoenol Lactone],78.2
2,N#CC(C#N)=NNc1ccc(OC(F)(F)F)cc1 [FCCP],67.3
3,O=C(O)Cn1nnc(-c2cc(N3CCC(Oc4cc(F)ccc4Br)CC3)no2)n1 [MK-8245],95.5
4,C=C(C=NNC(=N)N)NNC(=N)N [Mitoguazone],91.4
5,COc1cc(/C=C/C(=O)N2CCC=CC2=O)cc(OC)c1OC [Piperlongumine],60.5
6,CC[C@@]1(O)C(=O)OCc2c1cc1n(c2=O)Cc2cc3c(CN(C)C)c(O)ccc3nc2-1 [Topotecan],96

# Same assay, conditions: 10 nM; 72 h
row,Structure (SMILES),cell viability [%]
1,O=C1O/C(=C/Br)CCC1c1cccc2ccccc12 (centres undefined) [Bromoenol Lactone],83.5
2,N#CC(C#N)=NNc1ccc(OC(F)(F)F)cc1 [FCCP],93.7
3,O=C(O)Cn1nnc(-c2cc(N3CCC(Oc4cc(F)ccc4Br)CC3)no2)n1 [MK-8245],90.3
4,C=C(C=NNC(=N)N)NNC(=N)N [Mitoguazone],54.7
5,COc1cc(/C=C/C(=O)N2CCC=CC2=O)cc(OC)c1OC [Piperlongumine],98.5
6,CC[C@@]1(O)C(=O)OCc2c1cc1n(c2=O)Cc2cc3c(CN(C)C)c(O)ccc3nc2-1 [Topotecan],97

# Same assay, conditions: 100 nM; 72 h
row,Structure (SMILES),cell viability [%]
1,O=C1O/C(=C/Br)CCC1c1cccc2ccccc12 (centres undefined) [Bromoenol Lactone],73.9
2,N#CC(C#N)=NNc1ccc(OC(F)(F)F)cc1 [FCCP],94.6
3,O=C(O)Cn1nnc(-c2cc(N3CCC(Oc4cc(F)ccc4Br)CC3)no2)n1 [MK-8245],99.3
4,C=C(C=NNC(=N)N)NNC(=N)N [Mitoguazone],4.62
5,COc1cc(/C=C/C(=O)N2CCC=CC2=O)cc(OC)c1OC [Piperlongumine],68.7
6,CC[C@@]1(O)C(=O)OCc2c1cc1n(c2=O)Cc2cc3c(CN(C)C)c(O)ccc3nc2-1 [Topotecan],72.4

# Same assay, conditions: 1000 nM; 72 h
row,Structure (SMILES),cell viability [%]
1,O=C1O/C(=C/Br)CCC1c1cccc2ccccc12 (centres undefined) [Bromoenol Lactone],21.8
2,N#CC(C#N)=NNc1ccc(OC(F)(F)F)cc1 [FCCP],17.4
3,O=C(O)Cn1nnc(-c2cc(N3CCC(Oc4cc(F)ccc4Br)CC3)no2)n1 [MK-8245],90.2
4,C=C(C=NNC(=N)N)NNC(=N)N [Mitoguazone],2.41
5,COc1cc(/C=C/C(=O)N2CCC=CC2=O)cc(OC)c1OC [Piperlongumine],44.8
6,CC[C@@]1(O)C(=O)OCc2c1cc1n(c2=O)Cc2cc3c(CN(C)C)c(O)ccc3nc2-1 [Topotecan],58.2

# Same assay, conditions: 10000 nM; 72 h
row,Structure (SMILES),cell viability [%]
1,O=C1O/C(=C/Br)CCC1c1cccc2ccccc12 (centres undefined) [Bromoenol Lactone],< 0
2,N#CC(C#N)=NNc1ccc(OC(F)(F)F)cc1 [FCCP],0.937
3,O=C(O)Cn1nnc(-c2cc(N3CCC(Oc4cc(F)ccc4Br)CC3)no2)n1 [MK-8245],89.8
4,C=C(C=NNC(=N)N)NNC(=N)N [Mitoguazone],80.8
5,COc1cc(/C=C/C(=O)N2CCC=CC2=O)cc(OC)c1OC [Piperlongumine],6.11
6,CC[C@@]1(O)C(=O)OCc2c1cc1n(c2=O)Cc2cc3c(CN(C)C)c(O)ccc3nc2-1 [Topotecan],6.19

# Test system: myeloid leukemia patient primary cells Pat.4
# Assay: as above
# Settings: 1 nM; 72 h
# In short: as §1
row,Structure (SMILES),cell viability [%]
1,O=C1O/C(=C/Br)CCC1c1cccc2ccccc12 (centres undefined) [Bromoenol Lactone],64.7
2,N#CC(C#N)=NNc1ccc(OC(F)(F)F)cc1 [FCCP],89
3,O=C(O)Cn1nnc(-c2cc(N3CCC(Oc4cc(F)ccc4Br)CC3)no2)n1 [MK-8245],97.3
4,C=C(C=NNC(=N)N)NNC(=N)N [Mitoguazone],92.5
5,COc1cc(/C=C/C(=O)N2CCC=CC2=O)cc(OC)c1OC [Piperlongumine],82.6
6,CC[C@@]1(O)C(=O)OCc2c1cc1n(c2=O)Cc2cc3c(CN(C)C)c(O)ccc3nc2-1 [Topotecan],75.3

# Same assay, conditions: 10 nM; 72 h
row,Structure (SMILES),cell viability [%]
1,O=C1O/C(=C/Br)CCC1c1cccc2ccccc12 (centres undefined) [Bromoenol Lactone],93.3
2,N#CC(C#N)=NNc1ccc(OC(F)(F)F)cc1 [FCCP],90.4
3,O=C(O)Cn1nnc(-c2cc(N3CCC(Oc4cc(F)ccc4Br)CC3)no2)n1 [MK-8245],96.4
4,C=C(C=NNC(=N)N)NNC(=N)N [Mitoguazone],82.3
5,COc1cc(/C=C/C(=O)N2CCC=CC2=O)cc(OC)c1OC [Piperlongumine],88.8
6,CC[C@@]1(O)C(=O)OCc2c1cc1n(c2=O)Cc2cc3c(CN(C)C)c(O)ccc3nc2-1 [Topotecan],84.2

# Same assay, conditions: 100 nM; 72 h
row,Structure (SMILES),cell viability [%]
1,O=C1O/C(=C/Br)CCC1c1cccc2ccccc12 (centres undefined) [Bromoenol Lactone],85.8
2,N#CC(C#N)=NNc1ccc(OC(F)(F)F)cc1 [FCCP],97.9
3,O=C(O)Cn1nnc(-c2cc(N3CCC(Oc4cc(F)ccc4Br)CC3)no2)n1 [MK-8245],81
